Earlier results as cited in patent publication EP0502042B1, “PHARMACEUTICAL COMPOSITIONS” (PHARMACIA S.p.A., priority 1989, dated 1991).

System: mice

In the case of CN1C(=O)C(O)N=C(c2ccccc2)c2cc(Cl)ccc21 (stereo not shown) [Temazepam], the “oral LD 50” value is listed as ~1000 mg/kg.
